We go through 28 compounds from patent US9376442B2, “Methylpyrrolopyrimidinecarboxamides” (Takeda GmbH, priority 2009, dated 2016).

Structures are written as SMILES. Bounds are passed on as bounds.

This test has as its target T1, PDE5A1 (Homo sapiens, UniProt O76074).
T1 construct: from tissue; host or cells: human platelets from fresh donor blood (10,000 x g supernatant of sonicated lysate)
The test can be described thus: Inhibition of type 5 phosphodiesterase (PDE5) activity, modified SPA test with human platelet lysate. It is filed as biochemical. To be noted: 0.5 μM cGMP, read-out: PDE5A1 inhibitory values [measured as −log IC50 (mol/l)] (converted). In a few lines: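 Scintillation proximity assay with [3H]cGMP tracer at 0.5 μM total cGMP, stopped after 15 min with beads containing IBMX. PDE3 and PDE2 activities suppressed with motapizone (1 μM) and a PDE2 inhibitor (10 nM). Human platelet supernatant served as the enzyme, with compound preincubated 5 min at 37° C; IC50 values from concentration-effect curves.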
Turning to `COCC(=O)N[C@H]1CC[C@H](NC(=O)c2c(C)[nH]c3c(-c4ccc(F)cc4OCC4CC4)ncnc23)CC1` [Example E24, 4-[2-(Cyclopropylmethoxy)-4-fluorophenyl]-N-{trans-4-[(methoxyacetyl)amino]cyclohexyl}-6-methyl-5H-pyrrolo[3,2-d]pyrimidine-7-carboxamide], the IC50 is less than 1 nM. The value for `CC(=O)N[C@H]1CC[C@@H](NC(=O)c2c(C)[nH]c3c(-c4ccc(F)cc4OCC4CC4)ncnc23)CC1` [Example E25, N-(cis-4-acetamidocyclohexyl)-4-[2-(cyclopropylmethoxy)-4-fluorophenyl]-6-methyl-5H-pyrrolo[3,2-d]pyrimidine-7-carboxamide] was less than 1 nM.

With `CCC(=O)N[C@H]1CC[C@@H](NC(=O)c2c(C)[nH]c3c(-c4ccc(F)cc4OCC4CC4)ncnc23)CC1` [Example E26, 4-[2-(Cyclopropylmethoxy)-4-fluorophenyl]-6-methyl-N-[cis-4-(propionylamino)cyclohexyl]-5H-pyrrolo[3,2-d]pyrimidine-7-carboxamide], the IC50 was less than 1 nM. The value for `COCC(=O)N[C@H]1CC[C@@H](NC(=O)c2c(C)[nH]c3c(-c4ccc(F)cc4OCC4CC4)ncnc23)CC1` [Example E27, 4-[2-(Cyclopropylmethoxy)-4-fluorophenyl]-N-{cis-4-[(methoxyacetyl)amino]cyclohexyl}-6-methyl-5H-pyrrolo[3,2-d]pyrimidine-7-carboxamide] was less than 1 nM; that for `CC(=O)N1CC[C@@H](NC(=O)c2c(C)[nH]c3c(-c4ccc(F)cc4OCC4CC4)ncnc23)C1` [Example E28, N-[(3R)-1-acetylpyrrolidin-3-yl]-4-[2-(cyclopropylmethoxy)-4-fluorophenyl]-6-methyl-5H-pyrrolo[3,2-d]pyrimidine-7-carboxamide] was 1 to 10 nM. The value for `CCC(=O)N1CC[C@@H](NC(=O)c2c(C)[nH]c3c(-c4ccc(F)cc4OCC4CC4)ncnc23)C1` [Example E29, 4-[2-(Cyclopropylmethoxy)-4-fluorophenyl]-6-methyl-N-[(3R)-1-propanoylpyrrolidin-3-yl]-5H-pyrrolo[3,2-d]pyrimidine-7-carboxamide] was less than 1 nM; that for `COCC(=O)N1CC[C@@H](NC(=O)c2c(C)[nH]c3c(-c4ccc(F)cc4OCC4CC4)ncnc23)C1` [Example E30, 4-[2-(Cyclopropylmethoxy)-4-fluorophenyl]-N-[(3R)-1-(methoxyacetyl)pyrrolidin-3-yl]-6-methyl-5H-pyrrolo[3,2-d]pyrimidine-7-carboxamide] was less than 1 nM; that for `CC(=O)N1CC[C@@H](NC(=O)c2c(C)[nH]c3c(-c4cc(F)ccc4OCC4CC4)ncnc23)C1` [Example E46, N-[(3R)-1-acetylpyrrolidin-3-yl]-4-[2-(cyclopropylmethoxy)-5-fluorophenyl]-6-methyl-5H-pyrrolo[3,2-d]pyrimidine-7-carboxamide] was 1 to 10 nM. The value for `CCC(=O)N1CC[C@@H](NC(=O)c2c(C)[nH]c3c(-c4cc(F)ccc4OCC4CC4)ncnc23)C1` [Example E47, 4-[2-(Cyclopropylmethoxy)-5-fluorophenyl]-6-methyl-N-[(3R)-1-propanoylpyrrolidin-3-yl]-5H-pyrrolo[3,2-d]pyrimidine-7-carboxamide] was 1 to 10 nM; that for `COCC(=O)N1CC[C@@H](NC(=O)c2c(C)[nH]c3c(-c4cc(F)ccc4OCC4CC4)ncnc23)C1` [Example E48, 4-[2-(Cyclopropylmethoxy)-5-fluorophenyl]-N-[(3R)-1-(methoxyacetyl)pyrrolidin-3-yl]-6-methyl-5H-pyrrolo[3,2-d]pyrimidine-7-carboxamide] was 1 to 10 nM.

On to `CCOc1ccc(F)cc1-c1ncnc2c(C(=O)NC3CCN(C(C)=O)CC3)c(C)[nH]c12` [Example E52, N-(1-acetylpiperidin-4-yl)-4-(2-ethoxy-5-fluorophenyl)-6-methyl-5H-pyrrolo[3,2-d]pyrimidine-7-carboxamide], for which the IC50 is 1 to 10 nM.

For the compound `CCOc1ccc(F)cc1-c1ncnc2c(C(=O)NC3CCN(C(=O)CC)CC3)c(C)[nH]c12` [Example E53, 4-(2-Ethoxy-5-fluorophenyl)-6-methyl-N-(1-propanoylpiperidin-4-yl)-5H-pyrrolo[3,2-d]pyrimidine-7-carboxamide], the IC50 is 1 to 10 nM. As for `CCOc1ccc(F)cc1-c1ncnc2c(C(=O)NC3CCN(C(=O)COC)CC3)c(C)[nH]c12` [Example E54, 4-(2-Ethoxy-5-fluorophenyl)-N-[1-(methoxyacetyl)piperidin-4-yl]-6-methyl-5H-pyrrolo[3,2-d]pyrimidine-7-carboxamide], the figure is 1 to 10 nM; as for `COc1ccc(-c2ncnc3c(C(=O)NC4CCN(C(C)=O)CC4)c(C)[nH]c23)c(OCC2CC2)c1` [Example E55, N-(1-acetylpiperidin-4-yl)-4-[2-(cyclopropylmethoxy)-4-methoxyphenyl]-6-methyl-5H-pyrrolo[3,2-d]pyrimidine-7-carboxamide], less than 1 nM.

Regarding `CCC(=O)N1CCC(NC(=O)c2c(C)[nH]c3c(-c4ccc(OC)cc4OCC4CC4)ncnc23)CC1` [Example E56, 4-[2-(Cyclopropylmethoxy)-4-methoxyphenyl]-6-methyl-N-(1-propionylpiperidin-4-yl)-5H-pyrrolo[3,2-d]pyrimidine-7-carboxamide], the IC50 is less than 1 nM. As for `COCC(=O)N1CCC(NC(=O)c2c(C)[nH]c3c(-c4ccc(OC)cc4OCC4CC4)ncnc23)CC1` [Example E57, 4-[2-(Cyclopropylmethoxy)-4-methoxyphenyl]-N-[1-(methoxyacetyl)piperidin-4-yl]-6-methyl-5H-pyrrolo[3,2-d]pyrimidine-7-carboxamide], the figure is less than 1 nM; as for `COc1ccc(-c2ncnc3c(C(=O)N[C@H]4CC[C@H](NC(C)=O)CC4)c(C)[nH]c23)c(OCC2CC2)c1` [Example E58, N-(trans-4-acetamidocyclohexyl)-4-[2-(cyclopropylmethoxy)-4-methoxyphenyl]-6-methyl-5H-pyrrolo[3,2-d]pyrimidine-7-carboxamide], less than 1 nM; as for `COc1ccc(-c2ncnc3c(C(=O)N[C@H]4CC[C@@H](NC(C)=O)CC4)c(C)[nH]c23)c(OCC2CC2)c1` [Example E59, N-(cis-4-acetamidocyclohexyl)-4-[2-(cyclopropylmethoxy)-4-methoxyphenyl]-6-methyl-5H-pyrrolo[3,2-d]pyrimidine-7-carboxamide], less than 1 nM. The value for `COc1ccc(-c2ncnc3c(C(=O)N[C@@H]4CCN(C(C)=O)C4)c(C)[nH]c23)c(OCC2CC2)c1` [Example E60, N-[(3R)-1-acetylpyrrolidin-3-yl]-4-[2-(cyclopropylmethoxy)-4-methoxyphenyl]-6-methyl-5H-pyrrolo[3,2-d]pyrimidine-7-carboxamide] was less than 1 nM; that for `CCC(=O)N1CC[C@@H](NC(=O)c2c(C)[nH]c3c(-c4ccc(OC)cc4OCC4CC4)ncnc23)C1` [Example E61, 4-[2-(Cyclopropylmethoxy)-4-methoxyphenyl]-6-methyl-N-[(3R)-1-propionylpyrrolidin-3-yl]-5H-pyrrolo[3,2-d]pyrimidine-7-carboxamide] was less than 1 nM. Turning to `COCC(=O)N1CC[C@@H](NC(=O)c2c(C)[nH]c3c(-c4ccc(OC)cc4OCC4CC4)ncnc23)C1` [Example E62, 4-[2-(Cyclopropylmethoxy)-4-methoxyphenyl]-N-[(3R)-1-(methoxyacetyl)pyrrolidin-3-yl]-6-methyl-5H-pyrrolo[3,2-d]pyrimidine-7-carboxamide], the IC50 was less than 1 nM.

Take `COc1ccc(OCC2CC2)c(-c2ncnc3c(C(=O)N[C@@H]4CCN(C(C)=O)C4)c(C)[nH]c23)c1` [Example E75, N-[(3R)-1-acetylpyrrolidin-3-yl]-4-[2-(cyclopropylmethoxy)-5-methoxyphenyl]-6-methyl-5H-pyrrolo[3,2-d]pyrimidine-7-carboxamide]: the IC50 was less than 1 nM.

With `CCC(=O)N1CC[C@@H](NC(=O)c2c(C)[nH]c3c(-c4cc(OC)ccc4OCC4CC4)ncnc23)C1` [Example E76, 4-[2-(Cyclopropylmethoxy)-5-methoxyphenyl]-6-methyl-N-[(3R)-1-propionylpyrrolidin-3-yl]-5H-pyrrolo[3,2-d]pyrimidine-7-carboxamide], the IC50 was less than 1 nM. Take `COCC(=O)N1CC[C@@H](NC(=O)c2c(C)[nH]c3c(-c4cc(OC)ccc4OCC4CC4)ncnc23)C1` [Example E77, 4-[2-(Cyclopropylmethoxy)-5-methoxyphenyl]-N-[(3R)-1-(methoxyacetyl)pyrrolidin-3-yl]-6-methyl-5H-pyrrolo[3,2-d]pyrimidine-7-carboxamide]: the IC50 is less than 1 nM. Turning to `CCOc1ccc(C(F)(F)F)cc1-c1ncnc2c(C(=O)NC3CCN(C(C)=O)CC3)c(C)[nH]c12` [Example E99, N-(1-acetylpiperidin-4-yl)-4-[2-ethoxy-5-(trifluoromethyl)phenyl]-6-methyl-5H-pyrrolo[3,2-d]pyrimidine-7-carboxamide], the IC50 was less than 1 nM. With `CCOc1ccc(C(F)(F)F)cc1-c1ncnc2c(C(=O)NC3CCN(C(=O)CC)CC3)c(C)[nH]c12` [Example E100, 4-[2-Ethoxy-5-(trifluoromethyl)phenyl]-6-methyl-N-(1-propanoylpiperidin-4-yl)-5H-pyrrolo[3,2-d]pyrimidine-7-carboxamide], the IC50 was less than 1 nM. Turning to `CCOc1ccc(C(F)(F)F)cc1-c1ncnc2c(C(=O)NC3CCN(C(=O)COC)CC3)c(C)[nH]c12` [Example E101, 4-[2-Ethoxy-5-(trifluoromethyl)phenyl]-N-[1-(methoxyacetyl)piperidin-4-yl]-6-methyl-5H-pyrrolo[3,2-d]pyrimidine-7-carboxamide], the IC50 was less than 1 nM.

Consider `COc1cc(-c2ncnc3c(C(=O)NC4CCN(C(C)=O)CC4)c(C)[nH]c23)c(OCC2CC2)cc1F` [Example E102, N-(1-Acetylpiperidin-4-yl)-4-[2-(cyclopropylmethoxy)-4-fluoro-5-methoxyphenyl]-6-methyl-5H-pyrrolo[3,2-d]pyrimidine-7-carboxamide], for which the IC50 is less than 1 nM.
